According to US8710056B2, “Pyridazine compounds for controlling invertebrate pests” (BASF SE, priority 2009, dated 2014):

Key:
Type in all cases: in vivo
[1] = tested on: Cowpea aphid (Aphis craccivora); assay: Activity against cowpea aphid, spray on potted cowpea plants; conditions: spray on colonized cowpea plants, population reduction assessed after 24, 72 and 120 hours, read-out: mortality in comparison with untreated controls
Procedure: II.3 Activity Against Cowpea Aphid (Aphis craccivora)
The active compounds were formulated in 50:50 (vol:vol) acetone:water. The test solution was prepared at the day of use.
Potted cowpea plants colonized with 100-150 aphids of various stages were sprayed after the pest population had been recorded. Population reduction was assesed after 24, 72, and 120 hours.

[2] = tested on: Green peach aphids (Myzus persicae); assay: Hydroponic test against green peach aphids, bare-root green pepper plants; conditions: bare roots immersed 24 hours, assay 3 days, read-out: mortality in comparison with untreated controls
Procedure: II.7.1 Activity in the Hydroponic Tests Against Green Peach Aphids (Myzus persicae)
(§1) Green pepper plants (Capsicum annuum L., variety ‘California Wonder’) are grown in the greenhouse from seed to the second true leaf stage (BBCH 12) in Scott's MetroMix® 360 (1-2 plants per 2¼″ square pot). Cotyledon leaves are removed and roots are rinsed in tap water until free of soil. The roots are kept moist under a layer of wet paper toweling until all plants have been prepared.
(§2) A 3,400 ppm stock solution is prepared of each test compound using reagent grade acetone as the solvent. Subsequent dilutions of 100 and 10 ppm are prepared from this stock with final dilutions in deionized water in 100 ml amber glass bottles. One bare root plant is placed in each bottle using a foam plug section to centrally secure the stem in the bottleneck. The bare roots are fully-immersed in the test suspensions. Host plants are placed in a plant growth room under continuous GroLux® fluorescent lighting (40W), for 24 hours at 25±2° C. and 20-40% RH.
(§3) After exposure of the bare roots to the test suspensions, pieces of pepper plants infested with green peach aphid (Myzus persicae) are placed on top of the test foliage. Insects are allowed to transfer from the host leaves to accomplish an infestation of 40-50 insects per plant. […] Phytotoxic responses of the host plants are also recorded at this time.

[3] = tested on: Cotton aphid (Aphis gossypii, mixed life stages); assay: Activity against cotton aphid, foliar spray on infested cotton plants; conditions: 120 h, determined after 5 days, read-out: mortality in comparison with untreated controls
Procedure: II.1 Activity Against Cotton Aphid (Aphis gossypii, Mixed Life Stages)
(§4) The active compounds were formulated in cyclohexanone as a 10,0000 ppm solution supplied in 1.3 ml ABgene® tubes. These tubes were inserted into an automated electrostatic sprayer equipped with an atomizing nozzle and they served as stock solutions for which lower dilutions were made in 50% acetone:50% water (v/v). A nonionic surfactant (Kinetic®) was included in the solution at a volume of 0.01% (v/v).
Cotton plants at the cotyledon stage were infested with aphids prior to treatment by placing a heavily infested leaf from the main aphid colony on top of each cotyledon. Aphids were allowed to transfer overnight to accomplish an infestation of 80-100 aphids per plant and the host leaf was removed. The infested plants were then sprayed by an automated electrostatic plant sprayer equipped with an atomizing spray nozzle. The plants were dried in the sprayer fume hood, removed from the sprayer, and then maintained in a growth room under fluorescent lighting in a 24-hr photoperiod at 25° C. and 20-40% relative humidity. Aphid mortality on the treated plants, relative to mortality on untreated control plants, was determined after 5 days.

[4] = tested on: Green peach aphid (Myzus persicae); assay: Activity against green peach aphid through systemic means, artificial diet in 96-well microtiter plates; conditions: 72 h, read-out: mortality in comparison with untreated controls
Description: II.6 Activity Against Green Peach Aphid (Myzus persicae)
For evaluating control of green peach aphid (Myzus persicae) through systemic means the test unit consisted of 96-well-microtiter plates containing liquid artificial diet under an artificial membrane.
The compounds were formulated using a solution containing 75% v/v water and 25% v/v DMSO. Different concentrations of formulated compounds were pipetted into the aphid diet, using a custom built pipetter, at two replications. After application, 5 to 8 adult aphids were placed on the artificial membrane inside the microtiter plate wells. The aphids were then allowed to suck on the treated aphid diet and incubated at about 23+1° C. and about 50+5% relative humidity for 3 days. Aphid mortality and fecundity was then visually assessed.

[5] = tested on: Silverleaf whitefly (bemisia argentifolii, adult); assay: Activity against silverleaf whitefly, sprayed cotton plants; conditions: 72 h, whitefly adults, assessed 3 days after treatment, read-out: mortality in comparison with untreated controls
Procedure: II.4 Activity Against Silverleaf Whitefly (bemisia argentifolii, Adult)
as §4
Cotton plants at the cotyledon stage (one plant per pot) were sprayed by an automated electrostatic plant sprayer equipped with an atomizing spray nozzle. The plants were dried in the sprayer fume hood and then removed from the sprayer. Each pot was placed into a plastic cup and 10 to 12 whitefly adults (approximately 3-5 days old) were introduced. The insects were collected using an aspirator and 0.6 cm, nontoxic Tygon® tubing (R-3603) connected to a barrier pipette tip. The tip, containing the collected insects, was then gently inserted into the soil containing the treated plant, allowing insects to crawl out of the tip to reach the foliage for feeding. Cups were covered with a reusable screened lid (150-micron mesh polyester screen PeCap from Tetko, Inc.). […] Mortality was assessed 3 days after treatment, compared to untreated control plants.

[6] = tested on: Vetch aphid (Megoura viciae); assay: Activity against vetch aphid, bean leaf disks in microtiterplates; conditions: foliar, 144 h, test solution 2500 mg/L, 2.5 μl sprayed on bean leaf disks, 6 days
Procedure: II.5 Activity Against Vetch Aphid (Megoura viciae)
The active compounds were formulated in 1:3 (vol:vol) DMSO: water with different concentrations of formulated compounds.
Bean leaf disks were placed into microtiterplates filled with 0.8% agar-agar and 2.5 ppm OPUS™. The leaf disks were sprayed with 2.5 μl of the test solution and 5 to 8 adult aphids were placed into the microtiterplates which were then closed and kept at 23±1° C. and 50±5% relative humidity under fluorescent light for 6 days. Mortality was assessed on the basis of vital, reproduced aphids. Aphid mortality and fecundity was then visually assessed.

[7] = tested on: Vanda/Orchid thrips (Dichromothrips corbetti); assay: Activity against Vanda/orchid thrips, petal dip; conditions: orchid petals dipped, recorded after 72 hours, read-out: mortality in comparison with untreated controls
Procedure: II.7 Activity Against Vanda/Orchid Thrips (Dichromothrips corbetti)
The active compounds were formulated as a 50:50 (vol:vol) acetone:water solution. Surfactant (Alkamuls EL 620) was added at the rate of 0.1% (vol/vol). Vanda orchids petals were cleaned, washed and air dried prior to spraying. Petals were dipped into the test solution for 3 seconds, air dried, placed inside a resealable plastic and inoculated with 20 adults. The treated petals were kept inside the holding room at 28-29° C. and relative humidity of 50-60%. Percent mortality was recorded after 72 hours.

[8] = tested on: Green peach aphid (Myzus persicae, mixed life stages); assay: Activity against green peach aphid, foliar spray on infested bell pepper plants; conditions: 120 h, determined after 5 days, read-out: mortality in comparison with untreated controls
Procedure: II.2 Activity Against Green Peach Aphid (Myzus persicae, Mixed Life Stages)
as §4
Bell pepper plants at the first true-leaf stage were infested prior to treatment by placing heavily infested leaves from the main colony on top of the treatment plants. Aphids were allowed to transfer overnight to accomplish an infestation of 30-50 aphids per plant and the host leaves were removed. The infested plants were then sprayed by an automated electrostatic plant sprayer equipped with an atomizing spray nozzle. The plants were dried in the sprayer fume hood, removed, and then maintained in a growth room under fluorescent lighting in a 24-hr photoperiod at 25° C. and 20-40% relative humidity. Aphid mortality on the treated plants, relative to mortality on untreated control plants, was determined after 5 days.

[9] = tested on: Cotton aphids (Aphis gossypii); assay: Hydroponic test against cotton aphids, bare-root cotton plants; conditions: bare roots immersed 24 hours, assay 3 days, read-out: mortality in comparison with untreated controls
Procedure: II.8 Activity in the Hydroponic Tests against Cotton Aphids (Aphis gossypii)
as §1, with “Cotton” for “Green pepper”, “(Gossypium hirsutum,” for “(Capsicum annuum L.,”, “‘Sure Grow 747’)” for “‘California Wonder’)”, “Metro-Mix®” for “MetroMix®”
as §2
as §3, with “cotton” for “pepper”, “cotton aphids (Aphis gossypii)” for “green peach aphid (Myzus persicae)”

For `CN(C(=O)c1conc1C1CC1)c1ccnnc1` [Compound 5, 3-Cyclopropyl-isoxazole-4-carboxylic acid methyl-pyridazin-4-yl-amide], the mortality at 300 ppm [1] was no less than 90%, the mortality at 100 ppm [2] was no less than 75% and the mortality at 300 ppm [3] was no less than 75%. The mortality at 2500 ppm [4] was 100%, the mortality at 300 ppm [5] was no less than 75% and the mortality at 2500 µg/mL [6] was no less than 90%. For the same compound, the mortality at 500 ppm [7] was no less than 50%, the mortality at 300 ppm [8] was no less than 75% and the mortality at 100 ppm [9] was no less than 75%.
For `O=C(Nc1ccnnc1)c1conc1C1CC1` [Compound 4, 3-Cyclopropyl-isoxazole-4-carboxylic acid pyridazin-4-ylamide], the mortality at 300 ppm [1] was no less than 90%, the mortality at 100 ppm [2] was no less than 75% and the mortality at 300 ppm [3] was no less than 75%. It also gave a mortality at 2500 ppm [4] of 100%, a mortality at 300 ppm [5] of no less than 75% and a mortality at 2500 µg/mL [6] of no less than 90%. It also gave a mortality at 500 ppm [7] of no less than 50%, a mortality at 300 ppm [8] of no less than 75% and a mortality at 100 ppm [9] of no less than 75%.
